The target of data set [1] is T1, CYP2C9 (Homo sapiens, UniProt P11712).
T1 construct: A system of 100 μL human liver microsomes; from tissue; host or cells: human liver microsomes
Nature of the data set: Direct inhibition (DI) of CYP2C9 in human liver microsomes. To be noted: probe Diclofenac, human liver microsomes 0.2 mg/mL, 10 μM compound, read-out: Direct inhibition (DI) 2C9 (Diclofenac). It counts as in vitro ADME. The protocol:
(§1) Study on Direct Inhibition (DI) of CYP3A4, CYP2D6, CYP2C9, CYP2C19, CYP1A2
(§2) A system of 100 μL human liver microsomes (final concentration: 0.2 mg/mL) was used for direct inhibition under warm incubation. The system contained NADPH (final concentration: 1 mM), 10 μM compound, a positive inhibitor cocktail (Ketoconazole 10 μM, Quinidine: 10 μM, Sulfaphenazole: 100 μM, Naphthoflavone: 10 μM, Tranylcypromene 1000 μM), a negative control 10 μM DMSO and mixed probe substrates (Midazolam 10 μM, Testosterone 100 μM, Dextromethophan 10 μM, Diclofenac 20 μM, Phenetin 100 μM, Mephenytoin 100 μM). The reaction was terminated after incubation for 20 minutes. The relative activity of the enzymes was calculated by measuring the relative production of metabolites.

Data set [2] addresses EGFR kinase (Homo sapiens, UniProt P00533). Briefly: EGFR/ErbB2 enzymatic experiment (HTRF kinEASE-TK), EGFR. It counts as biochemical. The following applies: EGFR kinase 0.06 units/μL, ATP 1.65 μM; read-out: Kinase IC50 (nM) in vitro EGFR. The protocol: (§3) EGFR/ErbB2 Enzymatic Experiment
(§4) Firstly, 1× reaction buffer required for the kinase was prepared, then 5× Enzymatic buffer (HEPES 20 mM pH 7.0, NaN3 0.1%, BSA 0.05%, sodium orthovanadate 0.5 mM) was diluted in HTRF kinEASE-TK kit by 1 time with deionized water, and 50 nM Supplement Enzymatic buffer (SEB REAGENT), 1 mM MnCl2, 5 mM MfCl2, 1 mM DTT were added. Secondly, 5× compound was prepared, and 10 mM test compound storage solution was diluted in multiple steps with DMSO in a 96-well compound plate to prepare 100× compound as an initial concentration, which was then used as the first concentration to carry out a 3-fold gradient dilution with DMSO to obtain a total of 10 concentrations. Then 1 μL of gradient diluent was added to 19 μL of 1× reaction buffer to prepare 5× compound for later use. Then 2 μL of 5× compound was transferred from the 96-well plate into a 384-well plate. To the compound-free control wells was added 2 μL of the following liquid: 19 μL of 1× reaction buffer with addition of 1 μL of DMSO. To the blank control well was added 2 μL of 250 mM EDTA. […] In the fourth step of reaction termination, HTRF Detection buffer was used to prepare a mixture of 2×TK Antibody-EU (K) and Sa-XL665, and the amount of TK Antibody-EU (K) was 5 μL per well. After the enzyme reaction was carried out for 30 minutes, 10 μL of the above liquid was added to a 384-well plate, and the reaction was carried out at room temperature for 1 hour. […] RFU665 nM and RFU620 nM were measured, and RFU665 nM/RFU620 nM×10000 was used as final data for analysis.
In general terms: Time-resolved FRET reads energy transfer from a long-lived donor to a nearby acceptor.

For data set [3], the target named is T2, CYP1A2 (Homo sapiens, UniProt P05177).
T2 construct: A system of 100 μL human liver microsomes; from tissue; host or cells: human liver microsomes
T2 sequence (P05177 1-516): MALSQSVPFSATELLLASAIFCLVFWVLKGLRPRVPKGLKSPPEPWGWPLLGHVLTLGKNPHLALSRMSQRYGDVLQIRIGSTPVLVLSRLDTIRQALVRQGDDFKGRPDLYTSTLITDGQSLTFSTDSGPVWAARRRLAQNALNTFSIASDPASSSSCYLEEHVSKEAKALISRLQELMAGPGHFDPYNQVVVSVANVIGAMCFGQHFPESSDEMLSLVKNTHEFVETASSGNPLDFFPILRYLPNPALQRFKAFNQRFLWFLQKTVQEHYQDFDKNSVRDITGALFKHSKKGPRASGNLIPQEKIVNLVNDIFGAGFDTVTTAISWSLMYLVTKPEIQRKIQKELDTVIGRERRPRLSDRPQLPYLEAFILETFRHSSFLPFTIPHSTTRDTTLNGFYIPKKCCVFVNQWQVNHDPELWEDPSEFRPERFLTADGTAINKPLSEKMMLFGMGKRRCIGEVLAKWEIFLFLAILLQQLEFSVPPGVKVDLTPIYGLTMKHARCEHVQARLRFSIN
Briefly: Direct inhibition (DI) of CYP1A2 in human liver microsomes. It is filed as in vitro ADME. The following applies: probe Phenacetin, human liver microsomes 0.2 mg/mL, 10 μM compound, read-out: Direct inhibition (DI) 1A2 (Phenacetin). The protocol: as §1, §2

In data set [4] the test system is BT-474 (human breast cancer cell). Nature of the data set: In vitro proliferation inhibition assay of cell lines (CellTiter-Glo), BT-474. It is filed as cell-based. To be noted: BT-474 cells, 72 hours. The method, then:
(§5) In Vitro Proliferation Inhibition Assay of Cell Lines
1. […] 2. Dosing to the cells: on the second day of the experiment, the microplate was taken out from the incubator, and 10 μL of 10× compound was added to each well of the microplate, setting 2 duplicate wells for each drug concentration and 9 dosing concentrations for each compound. According to different cell lines, the initial concentration of each compound was different. Upon completion of addition, the microplate was placed under the conditions of 37° C. and 5% CO2 for 72 hours. 3. Data acquisition: the microplate was taken out from the incubator and was allowed to equilibrate at room temperature for 30 minutes. 100 μL of CellTiter-Glo® Luminescent Cell Viability Assay reaction solution which had been equilibrated at room temperature was added to each well, and the reaction solution was shaken at 1300 rpm for 2 minutes at room temperature. After that, the microplate was placed in HERAEUS Multifuge X1R centrifuge, centrifuged at 2000 rpm for 1 minute, and allowed to equilibrate at room temperature for 10 minutes. The fluorescence signal value was measured on EnVision™.
For orientation: In ATP-based viability assays light output follows the ATP content of the culture.

Data set [5] deals with T3, CYP3A4 (Homo sapiens, UniProt P08684).
T3 construct: A system of 100 μL human liver microsomes; from tissue; host or cells: human liver microsomes
T3 sequence (P08684 whole entry): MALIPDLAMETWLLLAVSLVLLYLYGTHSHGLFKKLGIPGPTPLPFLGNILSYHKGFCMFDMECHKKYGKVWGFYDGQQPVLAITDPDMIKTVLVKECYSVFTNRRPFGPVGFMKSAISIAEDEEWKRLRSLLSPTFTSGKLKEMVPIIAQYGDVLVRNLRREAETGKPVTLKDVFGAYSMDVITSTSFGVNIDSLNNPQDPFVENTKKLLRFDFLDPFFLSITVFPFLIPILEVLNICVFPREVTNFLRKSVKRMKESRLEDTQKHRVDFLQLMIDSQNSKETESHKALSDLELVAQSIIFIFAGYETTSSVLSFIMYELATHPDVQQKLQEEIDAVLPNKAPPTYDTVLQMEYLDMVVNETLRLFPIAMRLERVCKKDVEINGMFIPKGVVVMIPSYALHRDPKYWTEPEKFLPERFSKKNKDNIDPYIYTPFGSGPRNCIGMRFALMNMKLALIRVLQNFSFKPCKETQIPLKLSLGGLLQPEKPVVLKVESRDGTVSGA
Nature of the data set: Direct inhibition (DI) of CYP3A4 in human liver microsomes. It is filed as in vitro ADME. To be noted: human liver microsomes 0.2 mg/mL, 10 μM compound. The method, then: as §1, §2

In data set [6] the target is T4, CYP2D6 (Homo sapiens, UniProt P10635).
T4 construct: A system of 100 μL human liver microsomes; from tissue; host or cells: human liver microsomes
T4 sequence (P10635 whole entry): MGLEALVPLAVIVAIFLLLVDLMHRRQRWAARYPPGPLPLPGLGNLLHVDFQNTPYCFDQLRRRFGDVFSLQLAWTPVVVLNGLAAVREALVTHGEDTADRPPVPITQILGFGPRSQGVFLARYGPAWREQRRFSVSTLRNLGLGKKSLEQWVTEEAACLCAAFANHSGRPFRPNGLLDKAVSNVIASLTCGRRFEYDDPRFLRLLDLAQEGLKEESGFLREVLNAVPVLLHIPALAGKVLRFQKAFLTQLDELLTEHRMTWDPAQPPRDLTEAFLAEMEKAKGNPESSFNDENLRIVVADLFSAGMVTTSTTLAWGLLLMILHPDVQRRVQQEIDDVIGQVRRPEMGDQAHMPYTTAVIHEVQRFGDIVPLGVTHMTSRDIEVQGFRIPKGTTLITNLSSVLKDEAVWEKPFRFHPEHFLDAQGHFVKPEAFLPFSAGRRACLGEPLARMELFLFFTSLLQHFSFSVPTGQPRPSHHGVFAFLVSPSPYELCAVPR
Nature of the data set: Direct inhibition (DI) of CYP2D6 in human liver microsomes. To be noted: probe Dextromethorphan, human liver microsomes 0.2 mg/mL, 10 μM compound, read-out: Direct inhibition (DI) 2D6 (Dextromethorphan). It counts as in vitro ADME. The protocol: as §1, §2
A general note: Microsomes from liver hold many membrane-bound enzymes, among them those of drug oxidation.

The target in data set [7] is T5, ErbB2 kinase (Homo sapiens, UniProt P04626).
T5 construct: The final concentration of ErbB2 kinase was 0.06 ng/μL
T5 sequence (P04626 23-1255): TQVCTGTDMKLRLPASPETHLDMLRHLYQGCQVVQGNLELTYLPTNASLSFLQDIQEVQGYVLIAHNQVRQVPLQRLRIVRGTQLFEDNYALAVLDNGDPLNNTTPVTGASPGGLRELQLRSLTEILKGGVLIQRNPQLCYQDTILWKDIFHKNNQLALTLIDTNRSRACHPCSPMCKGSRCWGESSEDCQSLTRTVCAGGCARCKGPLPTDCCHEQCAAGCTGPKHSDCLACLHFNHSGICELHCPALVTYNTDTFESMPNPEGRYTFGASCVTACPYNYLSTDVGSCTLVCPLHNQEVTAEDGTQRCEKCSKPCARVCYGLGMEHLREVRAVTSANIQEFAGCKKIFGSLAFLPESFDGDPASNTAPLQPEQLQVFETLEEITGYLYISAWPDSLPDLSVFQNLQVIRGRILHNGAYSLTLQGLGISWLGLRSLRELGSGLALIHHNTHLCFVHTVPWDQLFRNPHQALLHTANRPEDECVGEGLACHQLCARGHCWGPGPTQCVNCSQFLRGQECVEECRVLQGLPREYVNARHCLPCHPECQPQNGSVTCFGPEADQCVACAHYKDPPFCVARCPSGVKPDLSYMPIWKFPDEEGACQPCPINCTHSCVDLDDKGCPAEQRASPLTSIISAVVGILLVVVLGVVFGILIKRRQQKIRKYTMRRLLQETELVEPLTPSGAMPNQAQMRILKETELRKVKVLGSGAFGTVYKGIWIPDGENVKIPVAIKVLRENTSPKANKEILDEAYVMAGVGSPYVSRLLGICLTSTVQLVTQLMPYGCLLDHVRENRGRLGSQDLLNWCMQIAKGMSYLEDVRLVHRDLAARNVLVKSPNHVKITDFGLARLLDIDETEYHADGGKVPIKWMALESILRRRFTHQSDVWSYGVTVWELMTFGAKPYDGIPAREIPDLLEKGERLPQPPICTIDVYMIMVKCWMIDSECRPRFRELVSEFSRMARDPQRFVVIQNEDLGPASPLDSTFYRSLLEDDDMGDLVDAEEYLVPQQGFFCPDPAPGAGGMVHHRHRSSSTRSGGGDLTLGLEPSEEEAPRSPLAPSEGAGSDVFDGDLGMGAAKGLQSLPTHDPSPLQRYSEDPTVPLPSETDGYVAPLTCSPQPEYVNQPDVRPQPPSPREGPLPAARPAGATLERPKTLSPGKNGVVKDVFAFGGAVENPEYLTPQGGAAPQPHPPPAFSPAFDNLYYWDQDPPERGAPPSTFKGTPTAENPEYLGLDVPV
Briefly: EGFR/ErbB2 enzymatic experiment (HTRF kinEASE-TK), ErbB2. It counts as biochemical. The following applies: ErbB2 kinase 0.06 ng/μL, ATP 4 μM; read-out: Kinase IC50 (nM) in vitro ErbB2. The method, then:
as §3, §4

The target in data set [8] is T6, CYP2C19 (Homo sapiens, UniProt P33261).
T6 construct: A system of 100 μL human liver microsomes; from tissue; host or cells: human liver microsomes
T6 sequence (P33261 whole entry): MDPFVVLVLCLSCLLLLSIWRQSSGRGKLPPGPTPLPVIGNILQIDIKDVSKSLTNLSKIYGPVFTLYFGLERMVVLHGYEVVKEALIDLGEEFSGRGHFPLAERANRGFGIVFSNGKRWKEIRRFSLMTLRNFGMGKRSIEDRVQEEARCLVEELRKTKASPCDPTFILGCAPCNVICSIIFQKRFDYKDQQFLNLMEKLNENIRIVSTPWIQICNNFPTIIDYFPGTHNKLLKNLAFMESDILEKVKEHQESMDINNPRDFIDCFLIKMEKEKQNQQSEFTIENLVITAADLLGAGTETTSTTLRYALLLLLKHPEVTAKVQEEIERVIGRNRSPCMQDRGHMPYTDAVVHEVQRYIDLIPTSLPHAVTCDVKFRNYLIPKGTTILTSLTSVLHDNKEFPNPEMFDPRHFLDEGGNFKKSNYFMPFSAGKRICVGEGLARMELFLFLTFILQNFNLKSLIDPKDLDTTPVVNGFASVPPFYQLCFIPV
Nature of the data set: Direct inhibition (DI) of CYP2C19 in human liver microsomes. It is filed as in vitro ADME. The following applies: probe Mephenytoin, human liver microsomes 0.2 mg/mL, 10 μM compound, read-out: Direct inhibition (DI) 2C19 (Mephenytoin). The method, then: as §1, §2

In data set [9] the test system is N87 (human gastric cancer cell NCI-N87). Briefly: In vitro proliferation inhibition assay of cell lines (CellTiter-Glo), N87. It is filed as cell-based. To be noted: N87 cells, 72 hours. The protocol:
as §5
1. Cell culture and inoculation: on the first day of the experiment, normal cultured cells were taken, and in the exponential growth state, after digestion and dispersion, the cell density was then adjusted to 8.8×10^4 cells/mL for BT-474, and 6.6×10^4 cells/mL for N87, and 90 μL of which were inoculated to each well of a 96-well cell culture plate; after the inoculation was completed, the microplate was cultured under the conditions of 37° C. and 5% CO2 overnight. 2. Dosing to the cells: on the second day of the experiment, the microplate was taken out from the incubator, and 10 μL of 10× compound was added to each well of the microplate, setting 2 duplicate wells for each drug concentration and 9 dosing concentrations for each compound. According to different cell lines, the initial concentration of each compound was different. Upon completion of addition, the microplate was placed under the conditions of 37° C. and 5% CO2 for 72 hours. 3. Data acquisition: the microplate was taken out from the incubator and was allowed to equilibrate at room temperature for 30 minutes. 100 μL of CellTiter-Glo® Luminescent Cell Viability Assay reaction solution which had been equilibrated at room temperature was added to each well, and the reaction solution was shaken at 1300 rpm for 2 minutes at room temperature. After that, the microplate was placed in HERAEUS Multifuge X1R centrifuge, centrifuged at 2000 rpm for 1 minute, and allowed to equilibrate at room temperature for 10 minutes. The fluorescence signal value was measured on EnVision™.

Setting [10] is: probe Midazolam, read-out: Direct inhibition (DI) 3A4 (Midazolam).
The mark [11] stands for this setting: probe Testosterone, read-out: Direct inhibition (DI) 3A4 (testosterone).

This note sets out measurements from patent US11578074B2, “Nitrogenous heterocyclic compound, preparation method, intermediate, composition, and application” (SHANGHAI PHARMACEUTICALS HOLDING CO., LTD., priority 2017, dated 2023).

Where two headings read alike, the source gives them in different places.

Chain of EGFR kinase (P00533 25-1210): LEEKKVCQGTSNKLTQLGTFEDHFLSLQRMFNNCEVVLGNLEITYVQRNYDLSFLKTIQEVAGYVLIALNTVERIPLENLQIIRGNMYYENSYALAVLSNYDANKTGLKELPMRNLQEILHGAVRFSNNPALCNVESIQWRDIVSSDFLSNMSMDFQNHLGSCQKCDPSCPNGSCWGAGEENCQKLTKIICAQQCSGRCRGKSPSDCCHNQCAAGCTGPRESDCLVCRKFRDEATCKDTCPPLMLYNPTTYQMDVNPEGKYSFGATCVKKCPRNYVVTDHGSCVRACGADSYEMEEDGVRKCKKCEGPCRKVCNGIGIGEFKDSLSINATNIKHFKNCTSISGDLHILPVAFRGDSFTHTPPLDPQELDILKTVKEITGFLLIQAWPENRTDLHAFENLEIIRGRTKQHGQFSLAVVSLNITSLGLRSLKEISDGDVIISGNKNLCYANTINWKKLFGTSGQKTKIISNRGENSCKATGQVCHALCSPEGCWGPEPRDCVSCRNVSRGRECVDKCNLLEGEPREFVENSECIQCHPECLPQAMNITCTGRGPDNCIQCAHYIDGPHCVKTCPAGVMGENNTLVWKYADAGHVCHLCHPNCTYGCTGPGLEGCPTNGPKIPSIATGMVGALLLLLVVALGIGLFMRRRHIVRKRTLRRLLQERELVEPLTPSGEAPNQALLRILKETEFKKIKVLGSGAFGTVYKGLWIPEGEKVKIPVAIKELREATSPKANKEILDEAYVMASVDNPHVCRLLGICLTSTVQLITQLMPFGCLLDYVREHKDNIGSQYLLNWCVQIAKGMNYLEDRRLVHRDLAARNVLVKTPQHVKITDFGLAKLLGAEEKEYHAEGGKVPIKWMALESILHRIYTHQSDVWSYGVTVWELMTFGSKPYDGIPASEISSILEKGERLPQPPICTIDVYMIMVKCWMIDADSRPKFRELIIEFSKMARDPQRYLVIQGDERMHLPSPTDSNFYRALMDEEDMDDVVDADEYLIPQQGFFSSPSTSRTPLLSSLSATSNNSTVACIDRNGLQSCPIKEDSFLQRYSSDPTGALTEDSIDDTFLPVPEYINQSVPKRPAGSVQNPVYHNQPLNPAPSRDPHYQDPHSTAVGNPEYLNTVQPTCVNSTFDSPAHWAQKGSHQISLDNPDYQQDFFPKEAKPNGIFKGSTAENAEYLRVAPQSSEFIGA
T1 sequence (P11712 whole entry): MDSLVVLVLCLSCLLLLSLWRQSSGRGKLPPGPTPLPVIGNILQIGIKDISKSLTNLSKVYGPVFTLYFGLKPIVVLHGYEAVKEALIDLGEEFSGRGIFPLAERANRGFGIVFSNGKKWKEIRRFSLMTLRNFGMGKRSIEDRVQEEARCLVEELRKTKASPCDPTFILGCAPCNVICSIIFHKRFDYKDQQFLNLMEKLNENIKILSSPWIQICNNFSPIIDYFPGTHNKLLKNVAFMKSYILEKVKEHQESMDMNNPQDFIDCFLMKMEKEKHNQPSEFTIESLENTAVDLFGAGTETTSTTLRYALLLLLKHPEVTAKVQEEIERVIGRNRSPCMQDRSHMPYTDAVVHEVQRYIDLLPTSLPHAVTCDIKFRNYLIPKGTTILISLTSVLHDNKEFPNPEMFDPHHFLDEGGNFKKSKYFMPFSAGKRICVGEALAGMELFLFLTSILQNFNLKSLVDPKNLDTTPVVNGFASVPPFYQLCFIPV

On to `CCOc1cc2ncnc(Nc3ccc(Oc4ccn5ncnc5c4)c(C)c3)c2cc1NC(=O)/C(F)=C\[C@@H]1CCCN1C`, for which the inhibition (usually the share of the control response that was lost under treatment) at 20 min, 10 µM in data set [1] is 21%; in data set [3], 23%; in [5] (setting [10]) it was 14%; in data set [5] (setting [11]), 32%; in data set [6], 38%; in data set [8] it was 43%. Besides, the half-maximal inhibitory concentration (IC50) (usually the point on the concentration scale where inhibition reaches its midpoint) was determined as 50.9 nM in data set [2], 5.9 nM in [4], 4.6 nM in [7] and 3.1 nM in data set [9].
In the case of `C=CC(=O)N1CCCC(Nc2ccc3ncnc(Nc4ccc(Oc5cc6nncn6cn5)c(C)c4)c3c2)C1` (stereo in doubt) [Final product of Embodiment 8, (R)-1-(3-((4-((4-([1,2,4]triazolo[4,3-c]pyrimidin-7-yloxy)-3-methylphenyl)amino)quinazolin-6-yl)amino)piperidin-1-yl)propan-2-en-1-one], the inhibition at 20 min, 10 µM in data set [1] was found to be 17%; in data set [3], 11%; in data set [5] (setting [10]) it was 61%; in data set [5] (setting [11]) it was 72%; in [6], 11%; in [8], 28%. Also, the concentration for half-maximal inhibition (IC50) in data set [2] is 136 nM; in data set [4], 10.3 nM; in [7], 17.5 nM; in [9] it was 19.4 nM.
On to `Cc1cc(Nc2c(C#N)cnc3ccc(NC(=O)/C=C/[C@H]4CCCN4)cc23)ccc1Oc1cc2nncn2cn1` [Final product of Embodiment 21, (R,E)-N-(4-((4-([1,2,4]triazolo[4,3-c]pyrimidin-7-yloxy)-3-methylphenyl)amino)-3-cyanoquinolin-6-yl)-3-(pyrrolidin-2-yl)acrylamide], for which the IC50 in data set [2] was found to be 3.46 nM; in data set [4], 54.6 nM; in [7], 8.25 nM; in data set [9], 94 nM.
On the same counts, the results for `Cc1cc(Nc2ncnc3ccc(NC(=O)/C=C/[C@H]4CCCN4C)cc23)ccc1Oc1ccn2cnnc2c1` [Final product of Embodiment 25] are 23.4 nM, 50.7 nM, 8.47 nM and 68.2 nM.
The corresponding values for `Cc1cc(Nc2ncnc3ccc(NC(=O)/C=C/C4COCCN4)cc23)ccc1Oc1cc2nncn2cn1` (stereo not drawn) [Final product of Embodiment 27, (E)-N-(4-((4-([1,2,4]triazolo[4,3-c]pyrimidin-7-yloxy)-3-methylphenyl)amino)quinazolin-6-yl)-3-(morpholin-3-yl)acrylamide] are 2.21 nM, 25.7 nM, 1.61 nM and 77.5 nM.
The corresponding values for `Cc1cc(Nc2ncnc3ccc(NC(=O)/C=C/[C@H]4CCCN4C)cc23)ccc1Oc1cnn2cnnc2c1` [Final product of Embodiment 29, (R,E)-N-(4-((4-([1,2,4]triazolo[4,3-b]pyridazin-7-yloxy)-3-methylphenyl)amino)quinazolin-6-yl)-3-(1-methylpyrrolidin-2-yl) acrylamide] are 20.5 nM, 46.6 nM, 15.2 nM and 60.4 nM.
With `Cc1cc(Nc2c(C#N)cnc3ccc(NC(=O)/C=C/[C@H]4CCCN4C)cc23)ccc1Oc1cnc2c(cnn2C)c1` [Final product of Embodiment 31], the IC50 in data set [2] was found to be 65.2 nM; in data set [4], 76 nM; in [7], 220 nM; in data set [9], 66.5 nM.
On the same counts, the results for `COCCOc1cc2ncnc(Nc3ccc(Oc4cc5nncn5cn4)c(C)c3)c2cc1NC(=O)/C=C/[C@H]1CCCN1` [Final product of Embodiment 35] are 0.514 nM, 17.7 nM, 2.67 nM and 18.9 nM.
The corresponding values for `COCCOc1cc2ncnc(Nc3ccc(Oc4cc5nncn5cn4)c(C)c3)c2cc1NC(=O)/C=C/[C@H]1CCCN1C` [Final product of Embodiment 36] are 0.53 nM, 1.89 nM, 1.1 nM and 1.64 nM.
On to `Cc1cc(Nc2ncnc3ccc(NC(=O)/C(F)=C\[C@H]4CCCN4C)cc23)ccc1Oc1ccn2ncnc2c1` [Final product of Embodiment 40], for which the inhibition at 20 min, 10 µM in data set [1] is less than 0%; in data set [3], less than 0%; in [5] (setting [10]), 3%; in data set [5] (setting [11]) it was 9%; in [6], 16%; in [8], 18%.
